# Measured values: ChEMBL document CHEMBL1777750, “Design strategies to target crystallographic waters applied to the Hsp90 molecular chaperone” (Bioorg Med Chem Lett, 2011)
# pKd, pKi: −log10 of the molar value.
# Assays:
# [1] = Displacement of tritium-labeled resorcinol amide ligand from HSP90 by scintillation proximity assay
# Heat shock protein HSP90 = Heat shock protein HSP90 (Homo sapiens, UniProt P07900+P08238); experiment: Inhibition of HSP90 in human H1299 cells assessed as degradation of Akt protein after 24 hrs by luminex assay; type: cell-based
# [2] = Binding affinity to HSP90 by isothermal titration calorimetry assay
Compound,pKi [1],IC50 (Heat shock protein HSP90) [nM],pKd [2]
COc1cc(-c2cc(C)nc(N)n2)c(Cl)cc1Cl,6.85,10000,–
COc1cc(-c2nc(C)nc3[nH]c(C)c(C#N)c23)c(Cl)cc1Cl,–,700,–
COc1ccccc1-c1cc(C)nc(N)n1,5.10,–,5.46
CC(C)(C)OC(=O)n1cccc1-c1cc(Cl)nc(N)n1,6.52,45000,–
Cc1cc(-c2cccn2C(=O)OC(C)(C)C)nc(N)n1,5.43,–,–
Cc1cc(-c2ccccc2)nc(N)n1,4.66,> 10000,–
COc1cc(Cl)ccc1-c1cc(C)nc(N)n1,5.57,27000,–
Cc1cc(-c2ccc(Cl)cc2Cl)nc(N)n1,6.46,10500,6.98
COc1cc(-c2cc(N)nc(C)n2)c(Cl)cc1Cl,5.00,–,–
CCc1[nH]c2nc(C)nc(-c3cc(OC)c(Cl)cc3Cl)c2c1C#N,7.82,500,–

# Now from value to molecule:
pKi [1],IC50 (Heat shock protein HSP90) [nM],pKd [2],Compound
–,1000,–,COc1cc(-c2nc(C)nc3[nH]cc(C#N)c23)c(Cl)cc1Cl
5.77,–,–,COc1cc(-c2nc(C)nc3[nH]ccc23)c(Cl)cc1Cl
6.70,–,–,COc1cc(-c2nc(C)nc3[nH]cc(C(C)=O)c23)c(Cl)cc1Cl
6.70,–,–,COc1cc(-c2nc(C)nc3[nH]cc(F)c23)c(Cl)cc1Cl
6.70,2000,–,COc1cc(-c2nc(C)nc3[nH]cc(Cl)c23)c(Cl)cc1Cl
5.70,–,–,COc1cc(-c2nc(C)nc3[nH]c(C)cc23)c(Cl)cc1Cl
7.00,–,–,COc1cc(-c2nc(C)nc3[nH]c(C)c(Cl)c23)c(Cl)cc1Cl
